PubChem BioAssay AID2060331 (Molecular Pharmacology Branch, DTP, NCI, 2025)

Tested on: Hs578T multi-cell spheroids, viability
Assay: Anticancer human tumor Hs578T cell line growth inhibition [IpAb];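 further: drug exposure lasted 7 days before readout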
Conditions: for IC50: curve of first compound; for viability, T/C: stronger effect = lower value
Description: Combinatorial screen of targeted agents with ipatasertib and abemaciclib in multi-cell type tumor spheroids
A high-throughput screen of multi-cell type tumor spheroids was designed to identify active combinations of targeted small molecules and ipatasertib or abemaciclib. Complex spheroids include a stromal component modeled by human endothelial cells (HUVEC) and fibroblasts modeled by human mesenchymal stem cells (MSCs). The concentration ranges selected for each drug and investigational agent were based upon clinically achievable concentrations if the clinical Cmax of the agent was known.
Compounds. The drugs and investigational agents: ipatasertib (NSC767898), abemaciclib(NSC768073), selumetinib (NSC741078), trametinib (758246), adavosertib (NSC754352), everolimus (NSC733504), sapanisertib (NSC764658), vemurafenib (NSC761431), venetoclax (NSC766270), copanlisib (NSC809693), apelisib (NSC765974), palbociblib (NSC758247), vemurafenib (NSC761431), dabrafenib (NSC764134), ravoxertinib (NSC781343), BMS-387032 (NSC767048), sotorasib (NSC818433), talazoparib (NSC767125) and afursertib (NSC778305), were obtained from the National Cancer Institute (NCI) Developmental Therapeutics Program Chemical Repository. The FDA-approved anticancer drug set is available from the NCI Developmental Therapeutics Program. […] The stock solutions were prepared in dimethyl sulfoxide (DMSO, Sigma-Aldrich, St. Louis, MO, cat. D2650) at 800-fold the tested concentration and stored at -70 degrees C prior to their use. All drugs and investigational agents were tested over a range starting from a high concentration at or near the clinical Cmax and decreasing in half-log increments. If the clinical Cmax for an agent had not been determined, the highest concentration tested was 10 microM.
NCI60 Cell Culture. NCI60 cell lines were obtained from the NCI Developmental Therapeutics Program Tumor Repository. For each lot of cells, the Repository performed Applied Biosystems AmpFLSTR Identifiler testing with PCR amplification to confirm consistency with the published Identifier STR profile for each cell line. Cells were kept in continuous culture for no more than 20 passages. The optimal seeding densities for each of the cell lines at each time point assessed were determined prior to performing the concentration response studies. Briefly, the NCI60 human tumor lines were grown as monolayers in RPMI 1640 medium supplemented with 10% FBS and 2 mmol/L L-glutamine.
An additional 9 lines were from the NCI60 cell line panel including MDA-MB-231 breast carcinoma, MDA-MB-468 breast carcinoma, MCF7 breast carcinoma, Hs578T breast carcinoma, MALME-3M melanoma, SK-MEL-2 melanoma, SK-OV-3 ovarian carcinoma, DU-145 prostate carcinoma, PC-3 prostate carcinoma, all cell lines along with major genetic alterations are listed on Table 2. Pooled donor human umbilical vein endothelial cells (HUVEC, Lonza, cat. CC-2519) and human mesenchymal stem cells (hMSC, Lonza, cat. PT-2501) were purchased from Lonza (Walkersville, MD).
PDMR cell lines were grown in complete medium (DC medium): Dulbecco's modified Eagle's medium (DMEM)/F12 supplemented with 5% fetal bovine serum (FBS), 2 mM L-glutamine, 100 U/mL penicillin and 100 µg/ml streptomycin, 0.4 µg/ml hydrocortisone, 10 ng/ml epidermal growth factor (EGF) recombinant human protein, 24 µg/mL adenine, and 0.1 mg/mL primocin. During culture from frozen stock vials, PDMR cells were cultured in the same medium containing 10 µM Y-27632 (see Table 3). The PDCs were cultured in complete DMEM/F12 media without 10 microM Y-27632 dihydrochloride for at least two passages prior to the screen. The pooled donor HUVEC and hMSC were cultured in endothelial cell growth medium 2 (PromoCell, Heidelberg, Germany, cat. C-22011) and mesenchymal stem cell growth medium 2 (PromoCell, cat. C-28009), respectively. For all experiments, HUVEC and hMSC were used at passages </=5.
[…]

[1] = second compound 0.1 µM, first compound 0.0316 µM
[2] = second compound 0.1 µM, first compound 0.1 µM
[3] = second compound 0.1 µM, first compound 0.316 µM
[4] = second compound 0.1 µM, first compound 1 µM
[5] = second compound 0.316 µM, first compound 0.0316 µM
[6] = second compound 0.316 µM, first compound 0.1 µM
[7] = second compound 0.316 µM, first compound 0.316 µM
[8] = second compound 0.316 µM, first compound 1 µM
[9] = second compound 1 µM, first compound 0.0316 µM
[10] = second compound 1 µM, first compound 0.1 µM
[11] = second compound 1 µM, first compound 0.316 µM
[12] = second compound 1 µM, first compound 1 µM
[13] = second compound 3.16 µM, first compound 0.0316 µM
[14] = second compound 3.16 µM, first compound 0.1 µM
[15] = second compound 3.16 µM, first compound 0.316 µM
[16] = second compound 3.16 µM, first compound 1 µM
[17] = second compound 10 µM, first compound 0.0316 µM
[18] = second compound 10 µM, first compound 0.1 µM
[19] = second compound 10 µM, first compound 0.316 µM
[20] = second compound 10 µM, first compound 1 µM

## CC(=O)c1c(C)c2cnc(Nc3ccc(N4CCNCC4)cn3)nc2n(C2CCCC2)c1=O + CC(C)NCC(C(=O)N1CCN(c2ncnc3c2C(C)CC3O)CC1)c1ccc(Cl)cc1
Second compound 0.1 µM
  IC50: > 300 nM
Second compound 0.316 µM
  IC50: > 300 nM
Second compound 1 µM
  IC50: 20 nM
Second compound 3.16 µM
  IC50: 11.1 nM
Second compound 10 µM
  IC50: < 0.949 nM
Second compound 0.1 µM, first compound 0.000949 µM
  viability, T/C: 96.7%
Second compound 0.1 µM, first compound 0.003 µM
  viability, T/C: 86.1%
Second compound 0.1 µM, first compound 0.00949 µM
  viability, T/C: 83.3%
Second compound 0.1 µM, first compound 0.03 µM
  viability, T/C: 71.4%
Second compound 0.1 µM, first compound 0.0949 µM
  viability, T/C: 64.2%
Second compound 0.1 µM, first compound 0.3 µM
  viability, T/C: 60.1%
Second compound 0.316 µM, first compound 0.000949 µM
  viability, T/C: 92.7%
Second compound 0.316 µM, first compound 0.003 µM
  viability, T/C: 79.7%
Second compound 0.316 µM, first compound 0.00949 µM
  viability, T/C: 70.3%
Second compound 0.316 µM, first compound 0.03 µM
  viability, T/C: 62.3%
Second compound 0.316 µM, first compound 0.0949 µM
  viability, T/C: 59.4%
Second compound 0.316 µM, first compound 0.3 µM
  viability, T/C: 49.5%
Second compound 1 µM, first compound 0.000949 µM
  viability, T/C: 62.7%
Second compound 1 µM, first compound 0.003 µM
  viability, T/C: 67.7%
Second compound 1 µM, first compound 0.00949 µM
  viability, T/C: 56.1%
Second compound 1 µM, first compound 0.03 µM
  viability, T/C: 48.6%
Second compound 1 µM, first compound 0.0949 µM
  viability, T/C: 43%
Second compound 1 µM, first compound 0.3 µM
  viability, T/C: 47.2%
Second compound 3.16 µM, first compound 0.000949 µM
  viability, T/C: 55.6%
Second compound 3.16 µM, first compound 0.003 µM
  viability, T/C: 58.8%
Second compound 3.16 µM, first compound 0.00949 µM
  viability, T/C: 52.8%
Second compound 3.16 µM, first compound 0.03 µM
  viability, T/C: 41.2%
Second compound 3.16 µM, first compound 0.0949 µM
  viability, T/C: 42.3%
Second compound 3.16 µM, first compound 0.3 µM
  viability, T/C: 38.8%
Second compound 10 µM, first compound 0.000949 µM
  viability, T/C: 48.7%
Second compound 10 µM, first compound 0.003 µM
  viability, T/C: 47.5%
Second compound 10 µM, first compound 0.00949 µM
  viability, T/C: 41.7%
Second compound 10 µM, first compound 0.03 µM
  viability, T/C: 35.5%
Second compound 10 µM, first compound 0.0949 µM
  viability, T/C: 35.6%
Second compound 10 µM, first compound 0.3 µM
  viability, T/C: 37.3%

## COc1c(OCCCN2CCOCC2)ccc2c3n(c(=NC(=O)c4cnc(N)nc4)nc12)CCN3 + CC(C)NCC(C(=O)N1CCN(c2ncnc3c2C(C)CC3O)CC1)c1ccc(Cl)cc1
Second compound 0.1 µM
  IC50: 33.2 nM
Second compound 0.316 µM
  IC50: 18.8 nM
Second compound 1 µM
  IC50: 8.74 nM
Second compound 3.16 µM
  IC50: 3.84 nM
Second compound 10 µM
  IC50: < 3.16 nM
Second compound 0.1 µM, first compound 0.00316 µM
  viability, T/C: 90.4%
Second compound 0.1 µM, first compound 0.01 µM
  viability, T/C: 76.8%
[1]
  viability, T/C: 47.4%
[2]
  viability, T/C: 31%
[3]
  viability, T/C: 15%
[4]
  viability, T/C: 5.13%
Second compound 0.316 µM, first compound 0.00316 µM
  viability, T/C: 81.7%
Second compound 0.316 µM, first compound 0.01 µM
  viability, T/C: 56.4%
[5]
  viability, T/C: 43.5%
[6]
  viability, T/C: 27%
[7]
  viability, T/C: 14.7%
[8]
  viability, T/C: 5.04%
Second compound 1 µM, first compound 0.00316 µM
  viability, T/C: 57.7%
Second compound 1 µM, first compound 0.01 µM
  viability, T/C: 50%
[9]
  viability, T/C: 36.6%
[10]
  viability, T/C: 24.9%
[11]
  viability, T/C: 14.8%
[12]
  viability, T/C: 5.35%
Second compound 3.16 µM, first compound 0.00316 µM
  viability, T/C: 51.3%
Second compound 3.16 µM, first compound 0.01 µM
  viability, T/C: 44.5%
[13]
  viability, T/C: 39.3%
[14]
  viability, T/C: 25.2%
[15]
  viability, T/C: 15.1%
[16]
  viability, T/C: 5%
Second compound 10 µM, first compound 0.00316 µM
  viability, T/C: 45.5%
Second compound 10 µM, first compound 0.01 µM
  viability, T/C: 43.9%
[17]
  viability, T/C: 33.6%
[18]
  viability, T/C: 20.3%
[19]
  viability, T/C: 13.2%
[20]
  viability, T/C: 3.28%

## Cc1nc(NC(=O)N2CCCC2C(N)=O)sc1-c1ccnc(C(C)(C)C(F)(F)F)c1 (stereo not given) + CC(C)NCC(C(=O)N1CCN(c2ncnc3c2C(C)CC3O)CC1)c1ccc(Cl)cc1
Second compound 0.1 µM
  IC50: 1600 nM
Second compound 0.316 µM
  IC50: 977 nM
Second compound 1 µM
  IC50: 491 nM
Second compound 3.16 µM
  IC50: 101 nM
Second compound 10 µM
  IC50: < 31.6 nM
[1]
  viability, T/C: 96.8%
[2]
  viability, T/C: 87.8%
[3]
  viability, T/C: 70.8%
[4]
  viability, T/C: 57.4%
Second compound 0.1 µM, first compound 3.16 µM
  viability, T/C: 42.6%
Second compound 0.1 µM, first compound 10 µM
  viability, T/C: 11.7%
[5]
  viability, T/C: 80.1%
[6]
  viability, T/C: 71.3%
[7]
  viability, T/C: 57.1%
[8]
  viability, T/C: 48.7%
Second compound 0.316 µM, first compound 3.16 µM
  viability, T/C: 41%
Second compound 0.316 µM, first compound 10 µM
  viability, T/C: 13.9%
[9]
  viability, T/C: 61.8%
[10]
  viability, T/C: 61.4%
[11]
  viability, T/C: 53.9%
[12]
  viability, T/C: 42.3%
Second compound 1 µM, first compound 3.16 µM
  viability, T/C: 30.6%
Second compound 1 µM, first compound 10 µM
  viability, T/C: 8.93%
[13]
  viability, T/C: 53.6%
[14]
  viability, T/C: 51%
[15]
  viability, T/C: 44.1%
[16]
  viability, T/C: 35%
Second compound 3.16 µM, first compound 3.16 µM
  viability, T/C: 32.5%
Second compound 3.16 µM, first compound 10 µM
  viability, T/C: 9.58%
[17]
  viability, T/C: 45.3%
[18]
  viability, T/C: 42.1%
[19]
  viability, T/C: 39.2%
[20]
  viability, T/C: 28.8%
Second compound 10 µM, first compound 3.16 µM
  viability, T/C: 21.8%
Second compound 10 µM, first compound 10 µM
  viability, T/C: 1.81%
